Test results reported in ChEMBL document CHEMBL5154866 (J Med Chem, 2022).

Key:
[1] = tested on: BaF3; assay: Antiproliferative activity against mouse BaF3 cells expressing ETV6 fused TRKC V573M mutant incubated for 3 days by CCK8 assay; details: BaF3, 72 h
[2] = tested on: BaF3; assay: cells; details: Mus musculus, BaF3, 72 h
[3] = tested on: BaF3; assay: Antiproliferative activity against mouse BaF3 cells expressing ETV6 fused TRKC G623R mutant incubated for 3 days by CCK8 assay; details: BaF3, 72 h
[4] = tested on: BaF3; assay: Antiproliferative activity against mouse BaF3 cells expressing CD74 fused TRKA G667S mutant incubated for 3 days by CCK8 assay; details: BaF3, 72 h
[5] = tested on: BaF3; assay: Antiproliferative activity against mouse BaF3 cells expressing ETV6 fused TRKC assessed as cell growth inhibition incubated for 3 days by CCK8 assay; details: BaF3, 72 h
[6] = tested on: BaF3; assay: Antiproliferative activity against mouse BaF3 cells expressing CD74 fused TRKA G667A mutant incubated for 3 days by CCK8 assay; details: BaF3, 72 h
[7] = tested on: BaF3; assay: Antiproliferative activity against mouse BaF3 cells expressing CD74 fused TRKA assessed as cell growth inhibition incubated for 3 days by CCK8 assay; details: BaF3, 72 h
[8] = tested on: BaF3; assay: cells; details: Mus musculus, BaF3, 72 h; remark: listed apart in the source
[9] = tested on: BaF3; assay: Antiproliferative activity against mouse BaF3 cells expressing ETV6 fused TRKC G696A mutant incubated for 3 days by CCK8 assay; details: BaF3, 72 h
[10] = tested on: BaF3; assay: Antiproliferative activity against mouse BaF3 cells expressing ETV6 fused TRKC G696C mutant incubated for 3 days by CCK8 assay; details: BaF3, 72 h
[11] = tested on: BaF3; assay: Antiproliferative activity against mouse BaF3 cells expressing ETV6 fused TRKC G623E mutant incubated for 3 days by CCK8 assay; details: BaF3, 72 h
[12] = target: T1, Discoidin domain-containing receptor 2 (Homo sapiens, UniProt Q16832); assay: Inhibition of human wild type partial length DDR2 (V555 to E855 residues) expressed in mammalian expression system by Kinomescan method
T1 sequence (Q16832 whole entry): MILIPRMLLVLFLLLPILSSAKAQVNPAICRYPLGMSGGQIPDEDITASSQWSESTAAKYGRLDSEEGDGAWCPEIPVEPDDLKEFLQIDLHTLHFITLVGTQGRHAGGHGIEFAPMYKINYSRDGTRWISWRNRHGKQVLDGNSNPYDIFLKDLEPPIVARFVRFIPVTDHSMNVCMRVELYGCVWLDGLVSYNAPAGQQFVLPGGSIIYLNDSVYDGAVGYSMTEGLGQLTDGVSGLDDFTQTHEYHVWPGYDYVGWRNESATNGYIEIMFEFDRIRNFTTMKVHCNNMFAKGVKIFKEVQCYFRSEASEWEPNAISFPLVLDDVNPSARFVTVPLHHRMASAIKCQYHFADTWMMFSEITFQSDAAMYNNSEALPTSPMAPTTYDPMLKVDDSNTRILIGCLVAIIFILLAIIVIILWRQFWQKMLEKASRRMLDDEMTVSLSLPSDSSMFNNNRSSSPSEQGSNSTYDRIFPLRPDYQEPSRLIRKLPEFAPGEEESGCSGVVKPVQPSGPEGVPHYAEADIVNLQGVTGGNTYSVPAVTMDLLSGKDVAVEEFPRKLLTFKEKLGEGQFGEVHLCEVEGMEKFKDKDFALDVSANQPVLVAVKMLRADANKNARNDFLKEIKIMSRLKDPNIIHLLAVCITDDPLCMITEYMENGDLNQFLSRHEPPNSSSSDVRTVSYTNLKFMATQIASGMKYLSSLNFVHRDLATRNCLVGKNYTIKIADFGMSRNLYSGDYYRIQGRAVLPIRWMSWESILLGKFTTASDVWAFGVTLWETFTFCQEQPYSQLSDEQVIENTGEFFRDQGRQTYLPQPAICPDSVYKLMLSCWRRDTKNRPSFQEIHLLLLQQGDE

[13] = target: Angiopoietin-1 receptor (Homo sapiens, UniProt Q02763); assay: Inhibition human wild type partial length Tie2 (N804 to T1112 residues) expressed in bacterial expression system by Kinomescan method
[14] = target: Ephrin type-A receptor 7 (Homo sapiens, UniProt Q15375); assay: Inhibition of human wild type partial length EphA7 (Y608 to S912 residues) expressed in bacterial expression system by Kinomescan method
[15] = target: Epithelial discoidin domain-containing receptor 1 (Homo sapiens, UniProt Q08345); assay: Inhibition of human wild type partial length DDR1(R565 to V876 residue) expressed in bacterial expression system by Kinomescan method
[16] = Cmax in Sprague-Dawley rat at 10 mg/kg, po measured upto 24 hrs by LC-MS/MS analysis; type: ADME, organism-based; set-up: dose 10 mg/kg, time < 24 hrs, route po; details: in vivo
[17] = AUC (0 to t) in Sprague-Dawley rat at 10 mg/kg, po measured upto 24 hrs by LC-MS/MS analysis; type: ADME, organism-based; set-up: time < 24 hrs, dose 10 mg/kg, route po; details: in vivo
[18] = target: High affinity nerve growth factor receptor (Homo sapiens, UniProt P04629, G667C); assay: Inhibition of TRKA G667C mutant (unknown origin) using Ser/Thr 06 peptide as substrate incubated for 1 hr in presence of 400 uM ATP by FRET based Z'-Lyte assay
[19] = target: High affinity nerve growth factor receptor (Homo sapiens, UniProt P04629); assay: Inhibition of N-terminal hexahistidine tagged TRKA (485 to 795 residues) (unknown origin) expressed in Sf9 cells using Ser/Thr 06 peptide as substrate incubated for 1 hr in presence of 400 uM ATP by FRET based Z'-Lyte assay
[20] = target: High affinity nerve growth factor receptor (Homo sapiens, UniProt P04629, G595R); assay: Inhibition of TRKA G595R mutant (unknown origin) by HTRF assay
[21] = Antiproliferative activity against human KM12-Luc cells assessed as inhibition of cell growth incubated for 3 days by CCK8 assay; type: functional, cell-based; details: 72 h
[22] = tested on: BaF3; assay: Antiproliferative activity against mouse BaF3 cells expressing ETV6 fused TRKC G696S mutant incubated for 3 days by CCK8 assay; details: BaF3, 72 h
[23] = tested on: BaF3; assay: Antiproliferative activity against mouse BaF3 cells assessed as inhibition of cell growth incubated for 3 days by CCK8 assay; type: functional, cell-based; details: BaF3, 72 h

Chain of Angiopoietin-1 receptor (Q02763 whole entry, the tested form may be a part): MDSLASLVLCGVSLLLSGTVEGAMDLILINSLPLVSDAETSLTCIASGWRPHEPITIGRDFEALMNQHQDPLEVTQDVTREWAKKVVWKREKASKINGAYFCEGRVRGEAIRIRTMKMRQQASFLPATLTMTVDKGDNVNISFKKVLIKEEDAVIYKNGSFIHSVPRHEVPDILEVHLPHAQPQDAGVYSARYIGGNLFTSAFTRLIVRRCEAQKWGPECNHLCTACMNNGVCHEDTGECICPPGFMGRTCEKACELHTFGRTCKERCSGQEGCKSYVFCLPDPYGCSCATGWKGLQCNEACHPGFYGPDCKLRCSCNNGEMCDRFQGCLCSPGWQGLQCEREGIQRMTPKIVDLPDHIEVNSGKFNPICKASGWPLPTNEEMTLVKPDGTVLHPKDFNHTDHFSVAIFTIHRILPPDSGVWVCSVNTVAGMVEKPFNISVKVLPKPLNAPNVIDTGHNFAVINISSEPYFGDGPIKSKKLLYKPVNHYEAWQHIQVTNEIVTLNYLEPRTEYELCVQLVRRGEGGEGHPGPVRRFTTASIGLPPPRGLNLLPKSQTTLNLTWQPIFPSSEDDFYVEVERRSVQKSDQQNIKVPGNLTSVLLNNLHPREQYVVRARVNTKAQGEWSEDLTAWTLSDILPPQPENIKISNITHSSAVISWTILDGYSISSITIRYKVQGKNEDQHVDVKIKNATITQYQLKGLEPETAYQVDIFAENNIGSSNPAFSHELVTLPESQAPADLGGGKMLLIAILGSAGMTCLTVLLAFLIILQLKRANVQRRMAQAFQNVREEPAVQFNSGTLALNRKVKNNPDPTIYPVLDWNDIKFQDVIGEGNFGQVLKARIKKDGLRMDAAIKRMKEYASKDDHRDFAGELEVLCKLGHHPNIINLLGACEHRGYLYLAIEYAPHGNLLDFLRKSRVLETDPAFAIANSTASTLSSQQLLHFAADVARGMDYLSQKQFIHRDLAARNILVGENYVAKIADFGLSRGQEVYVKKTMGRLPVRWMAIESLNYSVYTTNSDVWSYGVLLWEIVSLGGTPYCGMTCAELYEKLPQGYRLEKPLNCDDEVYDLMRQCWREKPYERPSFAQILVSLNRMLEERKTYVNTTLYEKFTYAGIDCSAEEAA
Chain of High affinity nerve growth factor receptor (Homo sapiens, UniProt P04629, G595R) (P04629 33-796 G595R limits assumed): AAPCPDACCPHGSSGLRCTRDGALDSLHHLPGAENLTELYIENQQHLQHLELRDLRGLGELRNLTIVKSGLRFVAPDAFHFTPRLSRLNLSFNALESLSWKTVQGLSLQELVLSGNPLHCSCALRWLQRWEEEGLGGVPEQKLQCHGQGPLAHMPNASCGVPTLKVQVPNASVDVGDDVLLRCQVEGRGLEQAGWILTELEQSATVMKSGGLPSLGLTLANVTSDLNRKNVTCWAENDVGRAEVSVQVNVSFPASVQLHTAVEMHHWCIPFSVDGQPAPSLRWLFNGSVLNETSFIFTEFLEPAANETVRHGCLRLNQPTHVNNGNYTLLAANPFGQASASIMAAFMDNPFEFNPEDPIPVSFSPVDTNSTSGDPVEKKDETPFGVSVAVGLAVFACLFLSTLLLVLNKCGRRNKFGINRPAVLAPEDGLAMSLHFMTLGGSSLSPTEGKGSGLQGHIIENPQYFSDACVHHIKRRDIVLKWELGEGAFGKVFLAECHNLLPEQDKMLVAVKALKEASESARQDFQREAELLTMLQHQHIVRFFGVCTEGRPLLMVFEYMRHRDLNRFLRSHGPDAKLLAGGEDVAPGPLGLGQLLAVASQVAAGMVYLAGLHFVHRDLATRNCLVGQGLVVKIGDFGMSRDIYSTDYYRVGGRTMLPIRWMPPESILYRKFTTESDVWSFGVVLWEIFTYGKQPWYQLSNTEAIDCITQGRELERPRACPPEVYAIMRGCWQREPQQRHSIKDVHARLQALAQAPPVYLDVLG
Chain of High affinity nerve growth factor receptor (Homo sapiens, UniProt P04629, G667C) (P04629 33-796 G667C limits assumed): as the sequence (P04629 33-796 G595R limits assumed) above, with R563G, G635C counted along it
Chain of High affinity nerve growth factor receptor (Homo sapiens, UniProt P04629) (P04629 whole entry, the tested form may be a part): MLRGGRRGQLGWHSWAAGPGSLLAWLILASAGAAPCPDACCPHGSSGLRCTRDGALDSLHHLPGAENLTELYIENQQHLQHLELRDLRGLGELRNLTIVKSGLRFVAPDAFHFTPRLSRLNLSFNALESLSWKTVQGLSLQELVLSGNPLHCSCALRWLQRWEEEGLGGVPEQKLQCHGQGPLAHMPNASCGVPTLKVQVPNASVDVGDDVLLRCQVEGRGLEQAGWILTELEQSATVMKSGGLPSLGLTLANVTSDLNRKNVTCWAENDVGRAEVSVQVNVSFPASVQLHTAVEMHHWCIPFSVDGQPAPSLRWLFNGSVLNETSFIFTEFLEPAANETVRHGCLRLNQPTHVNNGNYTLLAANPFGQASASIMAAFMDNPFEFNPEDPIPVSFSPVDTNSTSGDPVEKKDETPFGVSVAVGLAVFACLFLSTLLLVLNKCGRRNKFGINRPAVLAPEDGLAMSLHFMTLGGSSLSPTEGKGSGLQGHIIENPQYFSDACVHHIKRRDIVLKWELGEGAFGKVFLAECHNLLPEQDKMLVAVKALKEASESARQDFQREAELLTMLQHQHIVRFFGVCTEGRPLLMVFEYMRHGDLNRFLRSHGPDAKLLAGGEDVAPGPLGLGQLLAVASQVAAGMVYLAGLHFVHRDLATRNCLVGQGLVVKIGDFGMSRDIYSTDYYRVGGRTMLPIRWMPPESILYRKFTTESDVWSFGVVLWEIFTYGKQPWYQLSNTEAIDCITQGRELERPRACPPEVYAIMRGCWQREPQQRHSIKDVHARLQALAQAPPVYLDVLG
Chain of Epithelial discoidin domain-containing receptor 1 (Q08345 whole entry, the tested form may be a part): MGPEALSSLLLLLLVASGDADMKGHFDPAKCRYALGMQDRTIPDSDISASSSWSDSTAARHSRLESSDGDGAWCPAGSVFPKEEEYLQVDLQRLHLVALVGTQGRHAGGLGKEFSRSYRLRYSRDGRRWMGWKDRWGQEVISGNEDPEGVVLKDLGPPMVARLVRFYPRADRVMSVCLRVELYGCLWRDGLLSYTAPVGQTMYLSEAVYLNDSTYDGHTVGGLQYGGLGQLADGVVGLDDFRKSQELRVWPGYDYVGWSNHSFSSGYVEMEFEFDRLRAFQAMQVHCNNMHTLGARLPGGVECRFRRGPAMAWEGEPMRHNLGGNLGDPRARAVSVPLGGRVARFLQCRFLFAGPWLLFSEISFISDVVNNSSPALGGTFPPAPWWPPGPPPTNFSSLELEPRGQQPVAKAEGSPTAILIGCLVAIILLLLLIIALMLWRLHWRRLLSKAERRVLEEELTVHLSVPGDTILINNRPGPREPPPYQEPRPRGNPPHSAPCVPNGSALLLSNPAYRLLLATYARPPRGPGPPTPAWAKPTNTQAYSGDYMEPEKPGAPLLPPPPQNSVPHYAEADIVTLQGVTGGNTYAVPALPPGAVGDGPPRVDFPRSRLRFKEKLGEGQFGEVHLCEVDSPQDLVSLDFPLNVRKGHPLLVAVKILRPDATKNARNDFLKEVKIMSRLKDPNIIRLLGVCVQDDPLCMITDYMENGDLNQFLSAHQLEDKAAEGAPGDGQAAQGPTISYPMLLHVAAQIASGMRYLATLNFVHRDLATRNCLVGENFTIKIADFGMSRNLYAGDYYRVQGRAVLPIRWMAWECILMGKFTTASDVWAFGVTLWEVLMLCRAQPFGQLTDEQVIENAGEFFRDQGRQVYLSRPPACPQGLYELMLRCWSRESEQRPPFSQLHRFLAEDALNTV
Chain of Ephrin type-A receptor 7 (Q15375 whole entry, the tested form may be a part): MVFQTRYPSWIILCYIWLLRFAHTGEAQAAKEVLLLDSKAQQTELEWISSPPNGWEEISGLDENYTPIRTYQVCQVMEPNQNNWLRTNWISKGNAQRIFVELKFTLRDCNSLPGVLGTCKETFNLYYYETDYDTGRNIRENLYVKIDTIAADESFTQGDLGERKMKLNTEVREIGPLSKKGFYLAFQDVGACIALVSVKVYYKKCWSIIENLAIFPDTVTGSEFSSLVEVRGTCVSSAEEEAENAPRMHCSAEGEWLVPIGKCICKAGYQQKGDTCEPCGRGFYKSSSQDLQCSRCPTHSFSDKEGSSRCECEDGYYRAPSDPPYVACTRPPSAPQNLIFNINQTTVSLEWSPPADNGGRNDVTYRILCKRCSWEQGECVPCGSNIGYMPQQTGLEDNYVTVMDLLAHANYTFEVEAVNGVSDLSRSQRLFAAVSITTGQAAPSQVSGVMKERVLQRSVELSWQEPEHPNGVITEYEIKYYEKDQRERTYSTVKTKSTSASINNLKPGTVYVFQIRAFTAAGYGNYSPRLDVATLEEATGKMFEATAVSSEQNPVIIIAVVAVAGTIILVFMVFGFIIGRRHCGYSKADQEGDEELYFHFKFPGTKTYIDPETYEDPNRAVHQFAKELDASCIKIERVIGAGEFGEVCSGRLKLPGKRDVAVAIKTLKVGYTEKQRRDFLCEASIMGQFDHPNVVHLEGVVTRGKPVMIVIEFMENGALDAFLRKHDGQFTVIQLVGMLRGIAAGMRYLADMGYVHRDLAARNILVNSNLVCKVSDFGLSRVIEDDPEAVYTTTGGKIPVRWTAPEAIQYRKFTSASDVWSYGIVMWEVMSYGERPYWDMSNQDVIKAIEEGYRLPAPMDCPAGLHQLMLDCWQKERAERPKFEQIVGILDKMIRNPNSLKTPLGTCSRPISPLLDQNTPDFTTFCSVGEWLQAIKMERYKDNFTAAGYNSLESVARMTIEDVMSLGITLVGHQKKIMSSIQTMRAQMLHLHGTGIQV

Row | IC50 [1] | IC50 [2] | IC50 [3] | IC50 [4] | IC50 [5] | IC50 [6] | IC50 [7] | IC50 [8] | IC50 [9] | IC50 [10] | IC50 [11] | Structure (SMILES) | also measured
1 | 0.173 µM | 0.11 µM | > 1 µM | 0.0382 µM | 0.007 µM | 0.0101 µM | 0.009 µM | 1.55 µM | 0.0148 µM | 0.332 µM | 0.096 µM | O=C(Nc1cnn2ccc(N3CCC[C@@H]3c3cc(F)ccc3F)nc12)N1CC[C@H](O)C1 [LAROTRECTINIB] | –
2 | – | – | – | – | – | – | – | – | – | – | – | Cc1cn(-c2cc(NC(=O)c3cc4cc(c3C)C#Cc3cnc5ccc(nn35)N(C)CCNC(=O)CCCCO4)cc(C(F)(F)F)c2)cn1 | IC50 [12]: 0.313 µM; IC50 [13]: 0.217 µM; IC50 [14]: 0.162 µM; IC50 [15]: 0.0264 µM; Cmax [16]: 19.1 ng/mL; AUC(0-t) at 24 h [17]: 51.6 ng·h/mL
3 | – | 0.035 µM | – | – | 0.18 µM | – | 0.14 µM | 0.52 µM | – | – | – | Cc1c2cc(cc1C(=O)Nc1cc(CN3CCN(C)CC3)cc(C(F)(F)F)c1)OCCCCC(=O)NCCN(C)c1ccc3ncc(n3n1)C#C2 | IC50 [18]: 0.0027 µM; IC50 [19]: 0.0078 µM; IC50 [20]: 0.0806 µM
4 | 0.0107 µM | 0.041 µM | 0.0085 µM | 0.0105 µM | – | 0.0032 µM | – | – | 0.0024 µM | 0.0282 µM | 0.0057 µM | C[C@@H]1CCc2ncc(F)cc2[C@H]2CCCN2c2ccn3ncc(c3n2)C(=O)N1 [SELITRECTINIB] | IC50 [21]: 0.0023 µM; IC50 [22]: 0.0082 µM; IC50 [23]: > 10 µM
